Patent US5789431A, “Naphthoquinone antitumor compound and method” (The University of North Carolina at Chapel Hill, priority 1996, dated 1998)

What was measured:
human tumor cell lines = format: cell-based; conditions: Homo sapiens; cancer cell panel, general / most cell lines; read-out: logGI50 values in the cancer cell line panel (converted)
MALME-3M = experiment: in vitro melanoma cell growth inhibition (NCI screen)
M14 = experiment: as above
SK-MEL-28 = experiment: as above
SK-MEL-5 = experiment: as above
UACC-257 = experiment: as above
UACC-62 = experiment: as above
CCRF-CEM = experiment: in vitro leukemia cell growth inhibition (NCI screen)
HL-60(TB) = experiment: as above
K-562 = experiment: as above
RPMI-8226 = experiment: as above
U 251 = experiment: in vitro CNS cancer cell growth inhibition (NCI screen)
COLO-205 = experiment: in vitro colon cancer cell growth inhibition (NCI screen)
HCT-116 = experiment: as above
HCT-15 = experiment: as above
KM 12 = experiment: as above
SW 620 = experiment: as above
ACHN = experiment: in vitro renal cancer cell growth inhibition (NCI screen)
RXF-393 = experiment: as above
OVCAR-3 = experiment: in vitro ovarian cancer cell growth inhibition (NCI screen)
MCF7/ADR-RES = experiment: in vitro breast cancer cell growth inhibition (NCI screen)
BT-549 = experiment: as above
T-47D = experiment: as above
PC-3 = experiment: in vitro prostate cancer cell growth inhibition (NCI screen)
HOP-92 = experiment: in vitro non-small cell lung cancer cell growth inhibition (NCI screen)
NCI-H266 = experiment: as above
NCI-H522 = experiment: as above
MOLT-4 = experiment: in vitro leukemia cell growth inhibition (NCI screen)
TK-10 = experiment: in vitro renal cancer cell growth inhibition (NCI screen)
IGROV1 = experiment: in vitro ovarian cancer cell growth inhibition (NCI screen)
MCF-7 = experiment: in vitro breast cancer cell growth inhibition (NCI screen)
MDA-MB-435 = experiment: as above
MDA-N = experiment: as above
NCI-H23 = experiment: in vitro non-small cell lung cancer cell growth inhibition (NCI screen)
LOX1MVI = experiment: in vitro melanoma cell growth inhibition (NCI screen)
M19-MEL = experiment: as above
SF-539 = experiment: in vitro CNS cancer cell growth inhibition (NCI screen)
SN12C = experiment: in vitro renal cancer cell growth inhibition (NCI screen)
OVCAR-4 = experiment: in vitro ovarian cancer cell growth inhibition (NCI screen); conditions: OVACR-4
NCI-H460 = experiment: in vitro non-small cell lung cancer cell growth inhibition (NCI screen)

SMILES | GI50 (human tumor cell lines) [µM] | cytotoxicity log GI50 (MALME-3M) [M] | cytotoxicity log GI50 (SK-MEL-5) [M] | cytotoxicity log GI50 (UACC-257) [M] | cytotoxicity log GI50 (UACC-62) [M] | cytotoxicity log GI50 (HL-60(TB)) [M] | cytotoxicity log GI50 (K-562) [M] | cytotoxicity log GI50 (U 251) [M] | cytotoxicity log GI50 (COLO-205) [M] | cytotoxicity log GI50 (HCT-116) [M] | cytotoxicity log GI50 (HCT-15) [M] | cytotoxicity log GI50 (SW 620) [M] | cytotoxicity log GI50 (ACHN) [M] | cytotoxicity log GI50 (RXF-393) [M] | cytotoxicity log GI50 (OVCAR-3) [M] | cytotoxicity log GI50 (MCF7/ADR-RES) [M] | cytotoxicity log GI50 (BT-549) [M] | cytotoxicity log GI50 (T-47D) [M] | cytotoxicity log GI50 (PC-3) [M] | cytotoxicity log GI50 (NCI-H522) [M] | further results
COc1ccc(C(=O)NC2=C(Cl)C(=O)c3ccccc3C2=O)cc1 [Compound 2g] | ~1 | -5.92 | -5.89 | -5.79 | -6.12 | -6.35 | -5.85 | -5.83 | -5.76 | -6.36 | -6.37 | -6.17 | -6.44 | -6.23 | -5.79 | -5.85 | -5.77 | -5.90 | -5.90 | -6.42 | cytotoxicity log GI50 (M14): -6.20 M; cytotoxicity log GI50 (SK-MEL-28): -6.17 M; cytotoxicity log GI50 (CCRF-CEM): -6.10 M; cytotoxicity log GI50 (RPMI-8226): -6.02 M; cytotoxicity log GI50 (KM 12): -5.82 M; cytotoxicity log GI50 (HOP-92): -5.82 M; cytotoxicity log GI50 (NCI-H266): -5.87 M
O=C(NC1=C(Cl)C(=O)c2ccccc2C1=O)c1ccccc1 [Compound 2e, 2-Benzoylamino-3-chloro-1,4-naphthoquinone] | 10 to 100 | -4.77 |  |  | -4.62 |  | -4.66 |  | -4.81 | -4.76 | -4.60 | -4.76 | -4.68 | -4.72 | -4.72 | -4.73 | -4.70 | -4.66 | -4.60 | -4.62 | cytotoxicity log GI50 (MOLT-4): -4.70 M; cytotoxicity log GI50 (TK-10): -4.64 M; cytotoxicity log GI50 (IGROV1): -4.66 M; cytotoxicity log GI50 (MCF-7): -4.72 M; cytotoxicity log GI50 (MDA-MB-435): -4.72 M; cytotoxicity log GI50 (MDA-N): -5.30 M; cytotoxicity log GI50 (HOP-92): -4.60 M; cytotoxicity log GI50 (NCI-H266): -4.61 M; cytotoxicity log GI50 (NCI-H23): -4.62 M
CC(=O)NC1=C(NCCN(C)C)C(=O)c2ccccc2C1=O [Compound 39] |  | -5.12 | -5.14 | -5.03 | -4.98 | -5.01 | -4.91 | -4.99 | -5.00 | -5.08 | -5.02 |  |  |  |  |  |  |  |  | -4.99 | cytotoxicity log GI50 (LOX1MVI): -4.90 M; cytotoxicity log GI50 (M19-MEL): -5.12 M; cytotoxicity log GI50 (SF-539): -4.93 M; cytotoxicity log GI50 (SN12C): -4.98 M; cytotoxicity log GI50 (OVCAR-4): -5.05 M; cytotoxicity log GI50 (NCI-H23): -4.94 M; cytotoxicity log GI50 (NCI-H460): -4.89 M
